Our source for the IC50 values is patent EP2548876A1, “New CRTh2 antagonists” (Almirall, S.A., priority 2011, dated 2013).

The target in this experiment is T1, CRTh2 receptor (Homo sapiens, UniProt Q9Y5Y4).
T1 construct: expressed in transfected cells; host or cells: CHO.K1 cells (membranes)
T1 sequence (Q9Y5Y4 1-395): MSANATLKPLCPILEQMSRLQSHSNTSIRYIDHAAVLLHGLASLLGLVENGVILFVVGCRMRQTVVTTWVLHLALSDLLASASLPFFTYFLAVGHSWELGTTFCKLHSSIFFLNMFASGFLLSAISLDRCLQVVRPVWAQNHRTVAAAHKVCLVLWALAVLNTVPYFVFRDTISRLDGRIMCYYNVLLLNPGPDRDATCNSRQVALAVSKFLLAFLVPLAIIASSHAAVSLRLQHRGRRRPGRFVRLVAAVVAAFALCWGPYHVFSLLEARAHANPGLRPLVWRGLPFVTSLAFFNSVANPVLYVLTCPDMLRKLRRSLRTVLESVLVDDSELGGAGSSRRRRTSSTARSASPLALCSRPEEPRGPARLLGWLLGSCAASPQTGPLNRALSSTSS
Briefly: CRTh2 GTPγS antagonism binding assay. The experiment is classed as biochemical. The conditions noted are these: membranes from CHO.K1 cells stably overexpressing the CRTh2 receptor; PGD2 at 50 nM (EC80); 0.1 nM [35S]-GTPγS; 1 h pre-incubation with compound, then 2 h at room temperature; read-out: GTPγ Binding. Here is the method: CRTh2 GTPγS antagonism binding assay
The assay is performed using membranes obtained from CHO.K1 cells stably overexpressing the CRTh2 receptor and [^35S]-GTPγS as radioligand. Assay is performed pre-incubating 4-8 µg of membranes per well with the compound to be tested for 1 h, followed by incubation with PGD2 at 50 nM (EC80), 0.1 nM [^35S]-GTPγS in incubation buffer (20 mM HEPES, 10 mM MgCl2, 100 mM NaCl, 10 µM GDP, 10 µg/ml Saponine and 0.2% BSA) for 2 h at room temperature. The reaction is terminated by filtering in GF/C plates pre-treated with 20 mM HEPES, 10 mM MgCl2, 100 mM NaCl and washing 6 times with wash buffer (20 mM NaH2PO4, 20 mM Na2HPO4). After washing, plates are dried and scintillation buffer Optiphase added. The radioactivity retained in the filter is counted using a Microbeta liquid scintillation counter. Compound IC50 are determined using Excel XL-fit for calculations.
(In general: GTPγS resists hydrolysis and so accumulates on activated G proteins.)
Consider `CCN(Cc1cc(C(F)(F)F)ccc1-c1cn(CC(=O)O)c2cccnc12)C(=O)C1CC1` [Example 1, {3-[2-{[(Cyclopropylcarbonyl)(ethyl)amino]methyl}-4-(trifluoromethyl)phenyl]-1H-pyrrolo[3,2-b]pyridin-1-yl}acetic acid], for which the IC50 came to 15 nM.

Consider `CCN(Cc1cc(F)ccc1-c1cn(CC(=O)O)c2cccnc12)C(=O)C1CC1` [Example 2, [3-(2-{[(Cyclopropylcarbonyl)(ethyl)amino]methyl}-4-fluorophenyl)-1H-pyrrolo[3,2-b]pyridin-1-yl]acetic acid], for which the IC50 turned out to be 10 nM.

For `CCN(Cc1cc(C(F)(F)F)ccc1-c1cn(CC(=O)O)c2ccc(C)nc12)C(=O)C1CC1` [Example 3, {3-[2-{[(Cyclopropylcarbonyl)(ethyl)amino]methyl}-4-(trifluoromethyl)phenyl]-5-methyl-1H-pyrrolo[3,2-b]pyridin-1-yl}acetic acid], the IC50 is 16 nM.

With `CCN(Cc1cc(C(F)(F)F)ccc1-c1cn(C(C)C(=O)O)c2ccc(C)nc12)C(=O)C1CC1` (stereo not drawn) [Example 6, 2-{3-[2-{[(Cyclopropylcarbonyl)(ethyl)amino]methyl}-4-(trifluoromethyl)phenyl]-5-methyl-1H-pyrrolo[3,2-b]pyridin-1-yl}propanoic acid], the IC50 was 18 nM.

Regarding `CCN(Cc1cc(F)ccc1-c1cn(CC(=O)O)c2ccc(C(F)(F)F)nc12)C(=O)C1CC1` [Example 7, [3-(2-{[(Cyclopropylcarbonyl)(ethyl)amino]methyl}-4-fluorophenyl)-5-(trifluoromethyl)-1H-pyrrolo[3,2-b]pyridin-1-yl]acetic acid], the IC50 was 11 nM.

Turning to `Cc1ccc2c(n1)c(-c1ccc(C(F)(F)F)cc1CN(Cc1ccccc1)C(=O)C1CC1)cn2CC(=O)O` [Example 9, {3-[2-{[Benzyl(cyclopropylcarbonyl)amino]methyl}-4-(trifluoromethyl)phenyl]-5-methyl-1H-pyrrolo[3,2-b]pyridin-1-yl}acetic acid], the IC50 was 14 nM.

Regarding `CCN(Cc1cc(C(F)(F)F)ccc1-n1cc(CC(=O)O)c2cccnc21)C(=O)C1CC1` [Example 12, {1-[2-{[(Cyclopropylcarbonyl)(ethyl)amino]methyl}-4-(trifluoromethyl)phenyl]-1H-pyrrolo[2,3-b]pyridin-3-yl}acetic acid], the IC50 amounted to 9 nM.

With `CCN(Cc1cc(F)ccc1-n1cc(CC(=O)O)c2cccnc21)C(=O)C1CC1` [Example 13, [1-(2-{[(Cyclopropylcarbonyl)(ethyl)amino]methyl}-4-fluorophenyl)-1H-pyrrolo[2,3-b]pyridin-3-yl]acetic acid], the IC50 was 17 nM.

Take `CCN(Cc1cc(F)ccc1-n1cc(CC(=O)O)c2ccc(C)nc21)C(=O)C1CC1` [Example 16, [1-(2-{[(Cyclopropylcarbonyl)(ethyl)amino]methyl}-4-fluorophenyl)-6-methyl-1H-pyrrolo[2,3-b]pyridin-3-yl]acetic acid]: the IC50 was found to be 5 nM.

As for `CCN(Cc1ccccc1-n1cc(CC(=O)O)c2ccc(C)nc21)C(=O)C1CC1` [Example 17, [1-(2-{[(Cyclopropylcarbonyl)(ethyl)amino]methyl}phenyl)-6-methyl-1H-pyrrolo[2,3-b]pyridin-3-yl]acetic acid], the IC50 was found to be 5 nM.

Regarding `CCN(Cc1cc(C(F)(F)F)ccc1-c1cc(CC(=O)O)n2cccnc12)C(=O)C1CC1` [Example 20, {8-[2-{[(Cyclopropylcarbonyl)(ethyl)amino]methyl}-4-(trifluoromethyl)phenyl]pyrrolo[1,2-a]pyrimidin-6-yl}acetic acid], the IC50 worked out at 13 nM.

`CCN(Cc1cc(F)ccc1-c1cc(CC(=O)O)n2cccnc12)C(=O)C1CC1` [Example 21, [8-(2-{[(Cyclopropylcarbonyl)(ethyl)amino]methyl}-4-fluorophenyl)pyrrolo[1,2-a]pyrimidin-6-yl]acetic acid]: the IC50 amounted to 20 nM.

With `CCN(Cc1cc(C(F)(F)F)ccc1-c1cc(CC(=O)O)n2ccc(C(F)(F)F)nc12)C(=O)C1CC1` [Example 22, [8-[2-{[(Cyclopropylcarbonyl)(ethyl)amino]methyl}-4-(trifluoromethyl)phenyl]-2-(trifluoromethyl)pyrrolo[1,2-a]pyrimidin-6-yl]acetic acid], the IC50 is 6 nM.

For `CCN(Cc1cc(C(F)(F)F)ccc1-c1cc(CC(=O)O)n2ccc(C)nc12)C(=O)C1CC1` [Example 23, {8-[2-{[(Cyclopropylcarbonyl)(ethyl)amino]methyl}-4-(trifluoromethyl)phenyl]-2-methylpyrrolo[1,2-a]pyrimidin-6-yl}acetic acid], the IC50 is 7 nM.

In the case of `CCN(Cc1cc(C(F)(F)F)ccc1-c1cc(CC(=O)O)c2ccncn12)C(=O)C1CC1` [Example 26, {7-[2-{[(Cyclopropylcarbonyl)(ethyl)amino]methyl}-4-(trifluoromethyl)phenyl]pyrrolo[1,2-c]pyrimidin-5-yl}acetic acid], the IC50 amounted to 32 nM.
